Source: patent publication US20250136574A1, “SELECTIVE AGENTS TARGETING MYCOBACTERIUM TUBERCULOSIS” (priority 2022, published 2025)
Read-outs that look alike come from different tables or passages of the source.

What was measured:
[1] = Liver microsomal stability, human; conditions: human liver microsomes, n = 1
[2] = Human plasma protein binding; conditions: human, plasma
[3] = Plasma stability, mouse; conditions: n = 1
[4] = Liver microsomal stability, mouse; conditions: mouse liver microsomes, n = 1
[5] = PBS solubility; conditions: highest concentration with no detectable precipitate; phosphate-buffered saline
[6] = Plasma stability, human; conditions: n = 1
[7] = microsomes
[8] = microsomes; remark: listed apart in the source
[9] = in vitro; conditions: human, plasma
[10] = test system: human plasma protein; assay: Human plasma protein binding; conditions: human plasma protein binding

| Structure (SMILES) | liver microsomal stability CLint (μL/min/mg), human [1] | liver microsomal stability t1/2 (min), human [1] | fraction unbound [2] | plasma stability t1/2 (min), mouse [3] | liver microsomal stability CLint (μL/min/mg), mouse [4] | liver microsomal stability t1/2 (min), mouse [4] | PBS solubility [5] | plasma stability t1/2 (min), human [6] | liver microsomal stability CLint (μL/min/mg), human [7] | liver microsomal stability CLint (μL/min/mg), mouse [8] | fraction unbound [9] | plasma protein binding [10] |
| --- | --- | --- | --- | --- | --- | --- | --- | --- | --- | --- | --- | --- |
| CCCCCCC#Cc1cncc(-c2nnc(SCc3cc([N+](=O)[O-])cc([N+](=O)[O-])c3)n2C)c1 [drawing 140] | 357 µL/min/mg | 3.9 min | < 0.001 | >480; >480 min | 287 µL/min/mg | 4.8 min | <1.6 µM | >480; >480 min | – | – | – | – |
| CCCCCCC#Cc1cncc(-c2nnc(SCc3ccc([N+](=O)[O-])o3)n2C2CC2)c1 [drawing 141] | – | 1.9 min | – | 238 min | – | 2.5 min | 3.1 µM | 259 min | 470 µL/min/mg | 546 µL/min/mg | < 0.001 | – |
| CC(=O)CC(c1ccccc1)c1c(O)c2ccccc2oc1=O (centres unmarked) [warfarin] | – | – | – | – | – | – | – | – | – | – | – | >99.9% |
